Test results published in patent publication US8822486B2, “Spiropiperidine compounds” (Eli Lilly and Company, priority 2009, dated 2014).

How the values were obtained:
Format in all cases: cell-based
Gal4 PPARα = target: T1, Gal4 PPARα (Homo sapiens, UniProt Q07869); test: Gal4 PPARα reporter functional assay in CV1 cells; conditions: examined up to 10 μM, luciferase reporter, 24 hours
T1 construct: expressed in transfected cells; host or cells: CV1 (African green monkey kidney)
T1 sequence (Q07869 239-466 limits assumed): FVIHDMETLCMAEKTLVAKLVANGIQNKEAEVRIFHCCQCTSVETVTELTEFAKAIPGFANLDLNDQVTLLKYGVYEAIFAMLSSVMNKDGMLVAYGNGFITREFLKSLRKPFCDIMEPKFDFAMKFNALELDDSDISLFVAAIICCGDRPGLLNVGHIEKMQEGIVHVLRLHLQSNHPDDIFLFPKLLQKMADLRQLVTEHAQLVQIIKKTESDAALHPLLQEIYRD
Text: (§1) Gal4 PPARα, Gal4 PPARδ, and PPARγ reporter functional assays are also used to monitor the selectivity of exemplified compounds. CV1 cells, which are derived from the renal tissue of an African green monkey, are transfected with various receptor and reporter plasmids using Fugene. For the Gal4 PPARα and PPARδ assays, a reporter plasmid containing five tandem copies of the yeast transcription protein Gal4 response element, cloned upstream of a firefly luciferase gene driven by the major late promoter of adenovirus, is transfected together with a Simian Virus 40 (SV40) driven plasmid constitutively expressing a hybrid protein containing the Gal4 DNA binding domain (DBD), and either the PPARα or PPARδ ligand binding. For the PPARγ assay, plasmids encoding PPARγ and RXRα, both driven by a cytomegalovirus (CMV) promoter are transfected together with a plasmid containing luciferase reporter cDNA driven by the TK promoter and a receptor response element (2×PPRE). Cells are transfected in T225 cm^2 cell culture flasks in DMEM media with 5% charcoal-stripped FBS. […] After 24 hours incubation with compounds, cells are lysed and luciferase activity is determined as a measure of receptor activation by luminescence. […] The maximum percent stimulation is determined versus maximum stimulation obtained with 10 μM of an appropriate PPAR agonist reference compound. […]

human GPR40 = target: T2, human GPR40 (Homo sapiens, UniProt O14842); test: Calcium Flux Primary Assay
T2 construct: expressed in transfected cells; host or cells: HEK293
Protocol: Calcium Flux Primary Assay
HEK293 cells over expressing the human GPR40 cDNA maintained in Dulbecco's modified Eagle's medium with F12 medium in 3:1 ratio supplemented with 10% FBS and 800 μg/ml geneticin at 37° C. and 5% CO2 are employed for the study. Agonist assays are performed using a Calcium 4 Dye assay kit (Molecular Devices) in the presence (0.1%) or absence of fatty acid free BSA in the assay buffer (1×HBSS (Hank's Balanced Salt Solution) & 20 mM HEPES (4-(2-hydroxyethyl)-1-piperazineethanesulfonic acid). Receptor activation is measured as an increase in intracellular calcium using the Fluorometric Imaging Plate Reader (FLIPR). Maximum change in fluorescence over the base line is used to determine agonist response. EC50 (effective concentration at half the maximal response) value of the compound is calculated using Excel Fit software (version 4; IDBS) by plotting concentration vs relative fluorescence units (RFUs).

[1] = system: mouse insulinoma cell line Min6; test: Glucose Dependent Insulin Secretion (GDIS) assay in Min6 cells; conditions: 1 μM plus 25 mM glucose compared to 25 mM glucose alone; 2 h incubation
Protocol: (§2) Because activation of GPR40 is known to result in insulin secretion which is dependent on high glucose concentrations, two separate assay systems (insulinoma cell line and primary rodent islets) are developed to further characterize compounds that are known to increase intracellular calcium in the GPR40 primary assay discussed above.
GDIS assays are performed using the mouse insulinoma cell line Min6. Min6 cells are maintained in Dulbecco's Modified Eagle's Medium (DMEM) containing non-essential amino acids, 10% FBS, […] 2-mercaptoethanol and 1% penicillin and streptomycin at 37° C. plus 5% CO2 On the day of the experiment, the cells are washed twice with 200 μl of pre-warmed Krebs-ringer buffer without glucose. Addition of 200 μL of pre-warmed Krebs-ringer buffer containing 2.5 mM glucose is used to starve the cells followed by the addition of compounds in the presence of a high concentration of glucose (25 mM). The plate is incubated at 37° C. for 2 hours. At the end of the 2 h incubation, the supernatant is gently transferred into a Millipore filter plate and spun at 200 g (gravitational force) for 3 minutes. Insulin is assayed using a Mercodia Insulin estimation kit.

Gal4 PPARδ = target: T3, Gal4 PPARδ (Homo sapiens, UniProt Q03181); test: Gal4 PPARδ reporter functional assay in CV1 cells; conditions: examined up to 10 μM, luciferase reporter, 24 hours
T3 construct: expressed in transfected cells; host or cells: CV1 (African green monkey kidney)
T3 sequence (Q03181 211-439 limits assumed): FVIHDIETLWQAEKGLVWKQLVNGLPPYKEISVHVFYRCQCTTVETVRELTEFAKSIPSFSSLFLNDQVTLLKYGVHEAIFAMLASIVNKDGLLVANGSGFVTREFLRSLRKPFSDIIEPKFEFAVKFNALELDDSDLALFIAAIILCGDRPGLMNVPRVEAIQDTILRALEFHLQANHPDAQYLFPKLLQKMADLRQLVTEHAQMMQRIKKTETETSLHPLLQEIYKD
Text: as §1

[2] = system: primary rodent pancreatic islets of Langerhans; test: GDIS assay in primary rodent pancreatic islets; conditions: male SD rat islets; different concentrations; compared to 11.2 mM glucose alone; 90 min
Text: as §2
GDIS assays using primary rodent pancreatic islets of Langerhans are also used to characterize exemplified compounds. Pancreatic islets are isolated from male SD (Sprague Dawley) rats by collagenase digestion and Histopaque density gradient separation. The islets are cultured overnight in RPMI-1640 medium with GlutaMAXn (stabilized, dipeptide form of L-glutamine (Invitrogen catalog #61870-010)) to facilitate recovery from the isolation process. Insulin secretion is determined by a 90 minute incubation in EBSS (Earle's Balances Salt Solution) buffer in a 48-well plate. Briefly, islets are first preincubated in EBSS with 2.8 mM glucose for 30 min and are then transferred to a 48-well plate (four islets/well) containing 150 μl 2.8 mM glucose and incubated with 150 μl of EBSS with 2.8 or 11.2 mM glucose in the presence or absence of test compounds for 90 minutes. The buffer is removed from the wells at the end of the incubation and assayed for insulin levels using the Rat Insulin ELISA kit (Mercodia). […]

T2 sequence (O14842 whole entry): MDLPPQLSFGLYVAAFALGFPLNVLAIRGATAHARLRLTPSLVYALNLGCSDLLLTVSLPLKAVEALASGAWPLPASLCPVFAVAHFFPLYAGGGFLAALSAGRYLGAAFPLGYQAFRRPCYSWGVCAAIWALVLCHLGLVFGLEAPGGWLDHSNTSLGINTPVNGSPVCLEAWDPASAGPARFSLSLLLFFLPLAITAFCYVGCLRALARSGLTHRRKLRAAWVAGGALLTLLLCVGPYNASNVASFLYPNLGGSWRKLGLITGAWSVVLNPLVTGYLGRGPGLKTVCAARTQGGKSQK

CC#C[C@@H](CC(=O)O)c1ccc(OCc2ccc(CN3CCC4(C=Cc5ccccc54)CC3)s2)cc1 [Example 1, (3S)-3-[4-[[5-(Spiro[indene-1,4′-piperidine]-1′-ylmethyl)-2-thienyl]methoxy]phenyl]hex-4-ynoic acid]
functional activation of PPARα (Gal4 PPARα): No functional activation | EC50 (human GPR40; HEK293 cells over expressing human GPR40, intracellular calcium, FLIPR): 114 nM | Percent efficacy (human GPR40; maximal response compared to the natural ligand, linoleic acid): 91+/−9% | increase in insulin secretion [1]: two-fold increase | functional activation of PPARδ (Gal4 PPARδ): No functional activation | increase in insulin [2]: 2- to 4 fold
